In patent US20160367623A1, “AGONISTS OF GUANYLATE CYCLASE USEFUL FOR THE TREATMENT OF GASTROINTESTINAL DISORDERS, INFLAMMATION, CANCER AND OTHER DISORDERS” (priority 2015, published 2016):
Bridge positions count the residues as written; N and C are the ends. Ends that are not written are not given here.

Test system: patients with chronic idiopathic constipation (CIC)
Assay: Second phase 3 CIC trial: change from baseline in stool consistency (BSFS)
Type: in vivo, human
Details: 3 mg
[1] = Post-Treatment Week 13, All Randomized (includes Duplicate Patients)
[2] = Post-Treatment Week 13, ITT Population
[3] = Post-Treatment Week 13, ITT Population-Excluding Duplicate Patients
[4] = Post-Treatment Week 14, All Randomized (includes Duplicate Patients)
[5] = Post-Treatment Week 14, ITT Population
[6] = Post-Treatment Week 14, ITT Population-Excluding Duplicate Patients
[7] = Week 1, All Randomized (includes Duplicate Patients)
[8] = Week 1, ITT Population-Excluding Duplicate Patients
[9] = Week 2, All Randomized (includes Duplicate Patients)
[10] = Week 2, ITT Population-Excluding Duplicate Patients
[11] = Week 3, All Randomized (includes Duplicate Patients)
[12] = Week 3, ITT Population-Excluding Duplicate Patients
[13] = Week 4, All Randomized (includes Duplicate Patients)
[14] = Week 4, ITT Population-Excluding Duplicate Patients
[15] = Week 5, All Randomized (includes Duplicate Patients)
[16] = Week 5, ITT Population-Excluding Duplicate Patients
[17] = Week 6, All Randomized (includes Duplicate Patients)
[18] = Week 6, ITT Population-Excluding Duplicate Patients

Asn^1-Asp^2-Glu^3-Cys^4-Glu^5-Leu^6-Cys^7-Val^8-Asn^9-Val^10-Ala^11-Cys^12-Thr^13-Gly^14-Cys^15-Leu^16 (NDECELCVNVACTGCL; disulfide 4-12, 7-15) [Plecanatide, uroguanylin analogue, guanylate cyclase-C agonist; (C4:C12, C7:C15) bicycle peptide]
Change from Baseline in Stool Consistency, Difference from Placebo [1]: 0.24
Change from Baseline in Stool Consistency, LS Mean (SE) [1]: 1.23 (0.069)
Change from Baseline in Stool Consistency, Mean (SD) [1]: 1.27 (1.358)
Change from Baseline in Stool Consistency, Difference from Placebo [2]: 0.23
Change from Baseline in Stool Consistency, LS Mean (SE) [2]: 1.22 (0.071)
Change from Baseline in Stool Consistency, Mean (SD) [2]: 1.25 (1.368)
Change from Baseline in Stool Consistency, Difference from Placebo [3]: 0.23
Change from Baseline in Stool Consistency, LS Mean (SE) [3]: 1.22 (0.072)
Change from Baseline in Stool Consistency, Mean (SD) [3]: 1.25 (1.374)
Change from Baseline in Stool Consistency, Difference from Placebo [4]: 0.15
Change from Baseline in Stool Consistency, LS Mean (SE) [4]: 1.14 (0.071)
Change from Baseline in Stool Consistency, Mean (SD) [4]: 1.19 (1.393)
Change from Baseline in Stool Consistency, Difference from Placebo [5]: 0.14
Change from Baseline in Stool Consistency, LS Mean (SE) [5]: 1.15 (0.073)
Change from Baseline in Stool Consistency, Mean (SD) [5]: 1.19 (1.402)
Change from Baseline in Stool Consistency, Difference from Placebo [6]: 0.14
Change from Baseline in Stool Consistency, LS Mean (SE) [6]: 1.15 (0.074)
Change from Baseline in Stool Consistency, Mean (SD) [6]: 1.18 (1.408)
Change from Baseline in Stool Consistency, Difference from Placebo [7]: 0.68
Change from Baseline in Stool Consistency, LS Mean (SE) [7]: 1.26 (0.070)
Change from Baseline in Stool Consistency, Mean (SD) [7]: 1.38 (1.464)
Change from Baseline in Stool Consistency, Difference from Placebo (Week 1, ITT Population): 0.68
Change from Baseline in Stool Consistency, LS Mean (SE) (Week 1, ITT Population): 1.28 (0.072)
Change from Baseline in Stool Consistency, Mean (SD) (Week 1, ITT Population): 1.39 (1.479)
Change from Baseline in Stool Consistency, Difference from Placebo [8]: 0.69
Change from Baseline in Stool Consistency, LS Mean (SE) [8]: 1.30 (0.073)
Change from Baseline in Stool Consistency, Mean (SD) [8]: 1.39 (1.469)
Change from Baseline in Stool Consistency, Difference from Placebo [9]: 0.66
Change from Baseline in Stool Consistency, LS Mean (SE) [9]: 1.35 (0.070)
Change from Baseline in Stool Consistency, Mean (SD) [9]: 1.46 (1.566)
Change from Baseline in Stool Consistency, Difference from Placebo (Week 2, ITT Population): 0.66
Change from Baseline in Stool Consistency, LS Mean (SE) (Week 2, ITT Population): 1.38 (0.073)
Change from Baseline in Stool Consistency, Mean (SD) (Week 2, ITT Population): 1.46 (1.583)
Change from Baseline in Stool Consistency, Difference from Placebo [10]: 0.65
Change from Baseline in Stool Consistency, LS Mean (SE) [10]: 1.39 (0.073)
Change from Baseline in Stool Consistency, Mean (SD) [10]: 1.46 (1.578)
Change from Baseline in Stool Consistency, Difference from Placebo [11]: 0.52
Change from Baseline in Stool Consistency, LS Mean (SE) [11]: 1.41 (0.070)
Change from Baseline in Stool Consistency, Mean (SD) [11]: 1.52 (1.570)
Change from Baseline in Stool Consistency, Difference from Placebo (Week 3, ITT Population): 0.51
Change from Baseline in Stool Consistency, LS Mean (SE) (Week 3, ITT Population): 1.41 (0.073)
Change from Baseline in Stool Consistency, Mean (SD) (Week 3, ITT Population): 1.51 (1.573)
Change from Baseline in Stool Consistency, Difference from Placebo [12]: 0.51
Change from Baseline in Stool Consistency, LS Mean (SE) [12]: 1.42 (0.074)
Change from Baseline in Stool Consistency, Mean (SD) [12]: 1.52 (1.578)
Change from Baseline in Stool Consistency, Difference from Placebo [13]: 0.58
Change from Baseline in Stool Consistency, LS Mean (SE) [13]: 1.45 (0.071)
Change from Baseline in Stool Consistency, Mean (SD) [13]: 1.56 (1.509)
Change from Baseline in Stool Consistency, Difference from Placebo (Week 4, ITT Population): 0.55
Change from Baseline in Stool Consistency, LS Mean (SE) (Week 4, ITT Population): 1.45 (0.073)
Change from Baseline in Stool Consistency, Mean (SD) (Week 4, ITT Population): 1.55 (1.494)
Change from Baseline in Stool Consistency, Difference from Placebo [14]: 0.54
Change from Baseline in Stool Consistency, LS Mean (SE) [14]: 1.45 (0.074)
Change from Baseline in Stool Consistency, Mean (SD) [14]: 1.56 (1.504)
Change from Baseline in Stool Consistency, Difference from Placebo [15]: 0.68
Change from Baseline in Stool Consistency, LS Mean (SE) [15]: 1.53 (0.071)
Change from Baseline in Stool Consistency, Difference from Placebo (Week 5, ITT Population): 0.68
Change from Baseline in Stool Consistency, LS Mean (SE) (Week 5, ITT Population): 1.55 (0.074)
Change from Baseline in Stool Consistency, Mean (SD) (Week 5, ITT Population): 1.69 (1.462)
Change from Baseline in Stool Consistency, Difference from Placebo [16]: 0.67
Change from Baseline in Stool Consistency, LS Mean (SE) [16]: 1.56 (0.075)
Change from Baseline in Stool Consistency, Mean (SD) [16]: 1.70 (1.469)
Change from Baseline in Stool Consistency, Difference from Placebo [17]: 0.74
Change from Baseline in Stool Consistency, LS Mean (SE) [17]: 1.55 (0.072)
Change from Baseline in Stool Consistency, Difference from Placebo (Week 6, ITT Population): 0.74
Change from Baseline in Stool Consistency, LS Mean (SE) (Week 6, ITT Population): 1.56 (0.074)
Change from Baseline in Stool Consistency, Mean (SD) (Week 6, ITT Population): 1.67 (1.533)
Change from Baseline in Stool Consistency, Difference from Placebo [18]: 0.73
Change from Baseline in Stool Consistency, LS Mean (SE) [18]: 1.56 (0.075)
Change from Baseline in Stool Consistency, Mean (SD) [18]: 1.67 (1.529)
